In patent US11684616B2, “Azalactam compounds as HPK1 inhibitors” (PFIZER INC., priority 2020, dated 2023):
Where two headings read alike, the source gives them in different places.

What was measured:
[1] = target: Human recombinant full-length GST-tagged RPS6KA2 (RSK3) (Homo sapiens (Human), UniProt Q15349); experiment: Biochemical selectivity kinase assay (Z'-LYTE FRET), RSK3; settings: for IC50: 10 μM ATP (~Km)
Excerpt: (§1) Biochemical Selectivity Kinase Assay.
(§2) The dose response curve was curve fit to model number 205 (sigmoidal dose-response model). A ratio of the PRKD2 IC50 to the HPK1 Ki and a ratio of the RSK3 IC50 to the HPK1 Ki, is provided in the respective columns adjacent to the columns for PRKD2 IC50 and RSK3 IC50.

[2] = target: Human recombinant full-length GST-tagged PRKD2 (PKD2) (Homo sapiens (Human), UniProt Q9BZL6); experiment: Biochemical selectivity kinase assay (Z'-LYTE FRET), PRKD2; settings: for IC50: 25 μM ATP (~Km)
Sequence of Human recombinant full-length GST-tagged PRKD2 (PKD2) (Q9BZL6 whole entry): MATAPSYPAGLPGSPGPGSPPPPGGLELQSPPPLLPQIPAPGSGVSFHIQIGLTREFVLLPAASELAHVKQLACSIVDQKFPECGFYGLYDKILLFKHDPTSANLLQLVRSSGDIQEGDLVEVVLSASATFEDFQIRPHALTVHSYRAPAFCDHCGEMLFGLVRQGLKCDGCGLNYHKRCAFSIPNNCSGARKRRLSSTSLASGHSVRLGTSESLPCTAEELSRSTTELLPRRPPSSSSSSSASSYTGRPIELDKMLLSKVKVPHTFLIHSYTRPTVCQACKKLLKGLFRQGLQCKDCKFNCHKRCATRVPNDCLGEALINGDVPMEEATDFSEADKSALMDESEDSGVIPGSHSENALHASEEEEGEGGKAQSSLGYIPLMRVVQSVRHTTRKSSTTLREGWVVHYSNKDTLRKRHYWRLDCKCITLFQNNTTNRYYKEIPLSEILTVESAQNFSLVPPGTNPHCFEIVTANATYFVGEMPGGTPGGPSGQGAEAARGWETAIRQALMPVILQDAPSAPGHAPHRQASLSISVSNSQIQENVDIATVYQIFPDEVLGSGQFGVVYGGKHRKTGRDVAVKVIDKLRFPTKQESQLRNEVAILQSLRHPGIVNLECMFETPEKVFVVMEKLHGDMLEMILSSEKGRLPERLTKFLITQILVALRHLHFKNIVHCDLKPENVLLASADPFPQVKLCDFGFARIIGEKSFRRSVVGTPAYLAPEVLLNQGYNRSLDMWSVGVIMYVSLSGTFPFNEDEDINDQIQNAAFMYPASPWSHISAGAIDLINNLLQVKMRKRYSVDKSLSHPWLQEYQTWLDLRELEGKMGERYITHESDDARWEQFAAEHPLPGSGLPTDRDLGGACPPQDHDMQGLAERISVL
Excerpt: as §1, §2

[3] = tested on: Phospho-SLP-76 (Ser376) in Jurkat cells; experiment: Phospho-SLP-76 (Ser376) HTRF assay in anti-CD3 stimulated Jurkat cells; assay type: cell-based; settings: 30 min pre-treatment, anti-CD3 stimulation 15 min, read-out: pSLP76 IC50
In short: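 Jurkat cells pre-treated 30 min with compound (11-point 3-fold series, final 10 μM to 0.1 nM, 0.1% DMSO), then stimulated 15 min at 37° C with 200 μg/mL F(ab)2-complexed anti-CD3 (UCTH1). Lysate phospho-SLP-76 read by HTRF sandwich after overnight RT incubation; IC50 from four-parameter fit.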

[4] = target: human full-length autophosphorylated recombinant HPK1 (Homo sapiens (Human), UniProt Q92918); experiment: HPK1 biochemical enzyme assay (chelation-enhanced fluorescence, CHEF); settings: 0.5 nM HPK1, 45 μM ATP, Morrison fit
Sequence of human full-length autophosphorylated recombinant HPK1 (Q92918 other isoform, or with tags, fused parts or gaps): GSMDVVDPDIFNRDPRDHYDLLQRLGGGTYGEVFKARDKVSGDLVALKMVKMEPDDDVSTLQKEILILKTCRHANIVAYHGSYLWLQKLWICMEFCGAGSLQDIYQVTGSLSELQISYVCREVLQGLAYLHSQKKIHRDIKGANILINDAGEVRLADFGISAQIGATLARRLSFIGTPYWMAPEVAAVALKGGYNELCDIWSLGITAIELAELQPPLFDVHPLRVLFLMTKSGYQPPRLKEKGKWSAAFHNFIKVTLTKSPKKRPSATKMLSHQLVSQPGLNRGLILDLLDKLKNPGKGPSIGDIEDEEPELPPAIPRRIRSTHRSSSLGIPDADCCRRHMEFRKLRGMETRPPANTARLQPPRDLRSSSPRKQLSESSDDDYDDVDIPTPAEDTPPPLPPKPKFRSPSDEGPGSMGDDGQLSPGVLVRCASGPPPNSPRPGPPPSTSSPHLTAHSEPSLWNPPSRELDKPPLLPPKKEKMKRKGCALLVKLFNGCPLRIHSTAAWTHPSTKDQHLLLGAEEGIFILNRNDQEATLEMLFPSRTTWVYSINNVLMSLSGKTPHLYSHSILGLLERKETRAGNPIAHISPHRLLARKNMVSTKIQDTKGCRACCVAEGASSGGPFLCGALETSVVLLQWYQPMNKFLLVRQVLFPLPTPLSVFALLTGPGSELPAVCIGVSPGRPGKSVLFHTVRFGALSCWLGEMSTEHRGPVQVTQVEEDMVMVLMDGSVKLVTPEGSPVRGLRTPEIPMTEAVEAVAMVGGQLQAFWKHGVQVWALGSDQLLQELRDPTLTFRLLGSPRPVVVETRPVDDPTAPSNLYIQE
In short: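 Autophosphorylated full-length human HPK1 from Sf21 cells, His-tag removed by TEV, residual N-terminal Gly-Ser. Activity measured with a C-Sox fluorescent peptide substrate (CHEF); initial velocities followed at λex 360/λem 500 nm, 30 °C for 15 min.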

Sequence of Human recombinant full-length GST-tagged RPS6KA2 (RSK3) (Q15349 whole entry): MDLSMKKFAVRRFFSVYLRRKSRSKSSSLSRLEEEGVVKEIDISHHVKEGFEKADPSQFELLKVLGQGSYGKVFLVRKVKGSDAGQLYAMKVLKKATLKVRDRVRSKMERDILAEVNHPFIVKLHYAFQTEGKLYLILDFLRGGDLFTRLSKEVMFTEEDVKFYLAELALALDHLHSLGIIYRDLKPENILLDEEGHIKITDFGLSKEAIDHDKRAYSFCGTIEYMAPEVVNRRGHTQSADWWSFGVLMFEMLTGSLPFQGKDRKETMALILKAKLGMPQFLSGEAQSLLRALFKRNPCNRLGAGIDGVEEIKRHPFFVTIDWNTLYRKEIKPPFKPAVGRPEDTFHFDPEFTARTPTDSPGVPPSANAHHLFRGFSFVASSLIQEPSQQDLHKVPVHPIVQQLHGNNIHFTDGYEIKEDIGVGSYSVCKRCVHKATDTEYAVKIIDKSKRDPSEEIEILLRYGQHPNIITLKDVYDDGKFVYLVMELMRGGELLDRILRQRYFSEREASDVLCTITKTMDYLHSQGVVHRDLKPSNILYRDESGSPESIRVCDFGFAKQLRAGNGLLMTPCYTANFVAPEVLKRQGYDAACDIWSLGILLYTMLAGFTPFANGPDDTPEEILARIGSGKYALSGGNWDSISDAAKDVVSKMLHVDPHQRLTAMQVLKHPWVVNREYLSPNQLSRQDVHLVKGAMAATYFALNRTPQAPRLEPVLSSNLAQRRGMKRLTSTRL

IC50 ([3]; Homo sapiens, Jurkat) [nM] | Ki [4] [nM] | Compound | other results
 |  | CC[C@@H](N)c1nc(N2CCC[C@H]2C)cc2c1CN(c1cccc(-c3nnc4n3[C@@H](C)CC4)n1)C2=O [Example 1, 4-[(1R)-1-aminopropyl]-2-{6-[(5S)-5-methyl-6,7-dihydro-5H-pyrrolo[2,1-c][1,2,4]triazol-3-yl]pyridin-2-yl}-6-[(2R)-2-methylpyrrolidin-1-yl]-2,3-dihydro-1H-pyrrolo[3,4-c]pyridin-1-one] | IC50 [1]: 47 nM; IC50 [2]: 155 nM
94 |  | CCCn1cnnc1-c1cccc(N2Cc3c(cc(N(C)C)nc3CNC)C2=O)n1 [Example 300, 6-(dimethylamino)-4-[(methylamino)methyl]-2-[6-(4-propyl-4H-1,2,4-triazol-3-yl)pyridin-2-yl]-2,3-dihydro-1H-pyrrolo[3,4-c]pyridin-1-one] | IC50 [1]: 6.26 nM; RSK3 IC50/HPK1 Ki ([1]; ratio of the RSK3 IC50 to the HPK1 Ki): 23; IC50 [2]: 1.93 nM; PRKD2 IC50/HPK1 Ki ([2]; ratio of the PRKD2 IC50 to the HPK1 Ki): 14
324 | 1.5 | CCCn1cnnc1-c1cccc(N2Cc3c(cc(C4(C)CC4)nc3[C@H](C)N)C2=O)n1 (single isomer, unassigned) [Example 118, 4-[(1ξ)-1-aminoethyl]-6-(1-methyl-cyclopropyl)-2-[6-(4-propyl-4H-1,2,4-triazol-3-yl)pyridin-2-yl]-2,3-dihydro-1H-pyrrolo[3,4-c]pyridin-1-one] | 
329 | 5 | C[C@@H]1CCc2nnc(-c3cccc(N4Cc5c(cc(N(C)C)nc5C(C)(C)N)C4=O)n3)n21 (single isomer, unassigned) [Example 23, 4-(2-aminopropan-2-yl)-6-(dimethyl-amino)-2-{6-[(5ξ)-5-methyl-6,7-dihydro-5H-pyrrolo[2,1-c][1,2,4]triazol-3-yl]pyridin-2-yl}-2,3-dihydro-1H-pyrrolo[3,4-c]pyridin-1-one] | 
98 | 0.37 | CCN(C)c1cc2c(c(C(C)(C)N)n1)CN(c1cccc(-c3nncn3CC)n1)C2=O [Example 124, 4-(2-aminopropan-2-yl)-6-[ethyl(methyl)amino]-2-[6-(4-ethyl-4H-1,2,4-triazol-3-yl)pyridin-2-yl]-2,3-dihydro-1H-pyrrolo[3,4-c]pyridin-1-one] | 
106 | 0.22 | CCn1c(C)nnc1-c1cccc(N2Cc3c(cc(N4CCC[C@H]4C)nc3C(C)(C)N)C2=O)n1 [Example 134, 4-(2-aminopropan-2-yl)-2-[6-(4-ethyl-5-methyl-4H-1,2,4-triazol-3-yl)pyridin-2-yl]-6-[(2R)-2-methylpyrroli-din-1-yl]-2,3-dihydro-1H-pyrrolo[3,4-c]pyridin-1-one] | 
143 | 0.37 | CCCn1c(C)nnc1-c1cccc(N2Cc3c(cc(N4CCC[C@H]4C)nc3[C@@H](C)N)C2=O)n1 (single isomer, unassigned) [Example 135] | 
90 | 0.22 | CCCn1c(C)nnc1-c1cccc(N2Cc3c(cc(N4CCC[C@H]4C)nc3[C@H](C)N)C2=O)n1 (single isomer, unassigned) [Example 136] | 
270 | 1.02 | CCCn1cnnc1-c1cccc(N2Cc3c(cc(C4(C)CC4)nc3[C@@H](C)N)C2=O)n1 (single isomer, unassigned) [Example 117, 4-[(1ξ)-1-aminoethyl]-6-(1-methyl-cyclopropyl)-2-[6-(4-propyl-4H-1,2,4-triazol-3-yl)pyridin-2-yl]-2,3-dihydro-1H-pyrrolo[3,4-c]pyridin-1-one] | 
95 | 0.12 | CCCn1c(C)nnc1-c1cccc(N2Cc3c(cc(N4CCC[C@H]4C)nc3C(C)(C)N)C2=O)n1 [Example 133, 4-(2-aminopropan-2-yl)-2-[6-(5-methyl-4-propyl-4H-1,2,4-triazol-3-yl)pyridin-2-yl]-6-[(2R)-2-methylpyrroli-din-1-yl]-2,3-dihydro-1H-pyrrolo[3,4-c]pyridin-1-one] | 
194 | 1.03 | CCN(C)c1cc2c(c([C@H](C)N)n1)CN(c1cccc(-c3nnc(C)n3CC)n1)C2=O (single isomer, unassigned) [Example 128, 4-[(1ξ)-1-aminoethyl]-6-[ethyl(methyl)amino]-2-[6-(4-ethyl-5-methyl-4H-1,2,4-triazol-3-yl)pyridin-2-yl]-2,3-dihydro-1H-pyrrolo[3,4-c]pyridin-1-one] | 
421 | 0.77 | CCn1cnnc1-c1cccc(N2Cc3c(cc(C4(C)CC4)nc3[C@H](C)NC)C2=O)n1 [Example 112, 2-[6-(4-ethyl-4H-1,2,4-triazol-3-yl)pyridin-2-yl]-4-[(1S)-1-(methylamino)ethyl]-6-(1-methylcyclo-propyl)-2,3-dihydro-1H-pyrrolo[3,4-c]pyridin-1-one] | 
531 | 2.97 | CC[C@H](N)c1nc(C2(C)CC2)cc2c1CN(c1cccc(-c3nncn3CC)n1)C2=O (single isomer, unassigned) [Example 120, 4-[(1ξ)-1-aminopropyl]-2-[6-(4-ethyl-4H-1,2,4-triazol-3-yl)pyridin-2-yl]-6-(1-methylcyclo-propyl)-2,3-dihydro-1H-pyrrolo[3,4-c]pyridin-1-one] | 
78 | < 0.05 | CNCc1nc(N(C)C(C)C)cc2c1CN(c1cccc(-c3nnc4n3[C@@H](C)C[C@@H]4C)n1)C2=O [Example 211, 2-{6-[(5S,7S)-5,7-dimethyl-6,7-dihydro-5H-pyrrolo[2,1-c] [1,2,4]triazol-3-yl]pyridin-2-yl}-4-[(methyl-amino)methyl]-6-[methyl (propan-2-yl)amino]-2,3-dihydro-1H-pyrrolo[3,4-c] pyridin-1-one] | 
182 | 1.04 | CC[C@@H]1CCc2nnc(-c3cccc(N4Cc5c(cc(N6CCC[C@H]6C)nc5CNC)C4=O)n3)n21 [Example 203, 2-{6-[(5R)-5-ethyl-6,7-dihydro-5H-pyrrolo[2,1-c] [1,2,4]triazol-3-yl]pyridin-2-yl}-4-[(methyl-amino)methyl]-6-[(2R)-2-methylpyrroli-din-1-yl]-2,3-dihydro-1H-pyrrolo[3,4-c] pyridin-1-one] | 
62 | < 0.05 | C[C@@H]1CCCN1c1cc2c(c([C@@H](C)N)n1)CN(c1cccc(-c3nnc4n3[C@@H](CO)CC4)n1)C2=O [Example 30, 4-[(1R)-1-aminoethyl]-2-{6-[(5R)-5-(hydroxy-methyl)-6,7-dihydro-5H-pyrrolo[2,1-c][1,2,4]triazol-3-yl]pyridin-2-yl}-6-[(2R)-2-methylpyrroli-din-1-yl]-2,3-dihydro-1H-pyrrolo[3,4-c]pyridin-1-one] | 
354 | 0.78 | CCCn1cnnc1-c1cccc(N2Cc3c(cc(C4(C)CC4)nc3[C@@H](N)CC)C2=O)n1 (single isomer, unassigned) [Example 122, 4-[(1ξ)-1-aminopropyl]-6-(1-methylcyclo-propyl)-2-[6-(4-propyl-4H-1,2,4-triazol-3-yl)pyridin-2-yl]-2,3-dihydro-1H-pyrrolo[3,4-c]pyridin-1-one] | 
53 | < 0.05 | C[C@@H]1CCCN1c1cc2c(c([C@@H](C)N)n1)CN(c1cccc(-c3nnc4n3[C@H](C)CC4)n1)C2=O (single isomer, unassigned) [Example 25] | 
553 | 4.12 | CCCn1cnnc1-c1cccc(N2Cc3c(cc(C4(C)CC4)nc3[C@H](N)CC)C2=O)n1 (single isomer, unassigned) [Example 121, 4-[(1ξ)-1-aminopropyl]-6-(1-methylcyclo-propyl)-2-[6-(4-propyl-4H-1,2,4-triazol-3-yl)pyridin-2-yl]-2,3-dihydro-1H-pyrrolo[3,4-c]pyridin-1-one] | 
 | < 0.05 | 4-[(1ξ)-1- aminoethyl]-2- {6-[(5R)-5- (fluoromethyl)- 6,7-dihydro- 5H-pyrrolo[2,1- c][1,2,4]triazol- 3-yl]pyridin-2- yl}-6-[(2R)-2- methylpyrroli- din-1-yl]-2,3- dihydro-1H- pyrrolo[3,4- c]pyridin-1-one [Example 18] | IC50 [3]: 42 nM
243 | 0.97 | CCN(C)c1cc2c(c(C(C)(C)N)n1)CN(c1cccc(-c3nnc(C)n3CC)n1)C2=O [Example 123, 4-(2-aminopropan-2-yl)-6-[ethyl(methyl)amino]-2-[6-(4-ethyl-5-methyl-4H-1,2,4-triazol-3-yl)pyridin-2-yl]-2,3-dihydro-1H-pyrrolo[3,4-c]pyridin-1-one] | 
216 | 0.56 | CCn1cnnc1-c1cccc(N2Cc3c(cc(C4(C)CC4)nc3[C@@H](C)N)C2=O)n1 [Example 115, 4-[(1R)-1-aminoethyl]-2-[6-(4-ethyl-4H-1,2,4-triazol-3-yl)pyridin-2-yl]-6-(1-methylcyclo-propyl)-2,3-dihydro-1H-pyrrolo[3,4-c]pyridin-1-one] | 
120 | 0.25 | CCn1c(C)nnc1-c1cccc(N2Cc3c(cc(N4CCC[C@H]4C)nc3[C@@H](C)N)C2=O)n1 (single isomer, unassigned) [Example 154] | 
113 | 0.24 | CCn1c(C)nnc1-c1cccc(N2Cc3c(cc(N4CCC[C@H]4C)nc3[C@H](C)N)C2=O)n1 (single isomer, unassigned) [Example 155] | 
